In general, IC50 refers to the concentration at which inhibition is half-maximal. Higher therefore signals lower potency. As usually defined, the EC50 is the concentration needed to bring the measured effect to its halfway point. Higher therefore signals a need for much substance.

The text below walks through data of US10202377B2, “3-(1H-benzo[D]imidazol-2-yl)-1H-pyrazolo[3,4-C]pyridine and therapeutic uses thereof” (Samumed, LLC, priority 2014, dated 2019).

The subject of one assay is Wnt activity (Sp5-Luc reporter, SW480 colon carcinoma cells). As to the kind of experiment: Sp5-Luc Wnt reporter gene screening assay in SW480 colon carcinoma cells. The note with it: Homo sapiens. (In a reporter assay the amount or activity of a reporter protein is the signal.)
Procedure: The screening assay for Wnt activity is described as follows.
SW480 colon carcinoma cells were transduced with a lentiviral vector expressing luciferase with a human Sp5 promoter consisting of a sequence of eight TCF/LEF binding sites. SW480 cells stably expressing the Sp5-Luc reporter gene and a hygromycin resistance gene were selected by treatment with 150 μg/ml of hygromycin for 7 days. These stably transduced SW480 cells were expanded in cell culture and used for all further screening activities. For Sp5-Luc reporter gene assays, the cells were plated at 10,000 cells/well in 96-well plates with growth medium containing 10% fetal calf serum and incubated overnight at 37° C. and 5% CO2. […] Compound transfer from serially diluted source plates to assay plates containing the cells was accomplished using a pintool (Multimek 96, Beckman equipped with V&P Scientific FP1S50H pins) based liquid handling protocol. This protocol used a slotted pin to transfer 50 nl of compound from a source plate well to an assay plate well containing 50 μl of cells in growth medium. […] Control wells received 50 nl of DMSO treatment for normalization and calculating IC50 values. The treated cells were incubated at 37° C. and 5% CO2 for an additional forty-two hours. Following incubation, the growth medium was removed and 50 μl of BrightGlo luminescence reagent (Promega) was added to each well of the 96-well assay plates. The plates were placed on an orbital shaker for 5 min and then luminescence was quantified on the Victor3 (Perkin Elmer) plate reader.
`CCC(=O)Nc1cncc(-c2cc3c(-c4nc5c(-c6cccc(F)c6)cccc5[nH]4)n[nH]c3cn2)c1` [Compound 1, N-(5-(3-(4-(3-Fluorophenyl)-1H-benzo[d]imidazol-2-yl)-1H-pyrazolo[3,4-c]pyridin-5-yl)pyridin-3-yl)propionamide] came in with an IC50 of 43.9 nM. Regarding `CN(C)c1cncc(-c2cc3c(-c4nc5c(-c6cccc(F)c6)cccc5[nH]4)n[nH]c3cn2)c1` [Compound 7, 5-(3-(4-(3-Fluorophenyl)-1H-benzo[d]imidazol-2-yl)-1H-pyrazolo[3,4-c]pyridin-5-yl)-N,N-dimethylpyridin-3-amine], the IC50 was 42.4 nM. In turn, `CCCC(=O)Nc1cncc(-c2cc3c(-c4nc5c(-c6ccncc6)cccc5[nH]4)n[nH]c3cn2)c1` [Compound 121, N-(5-(3-(4-(Pyridin-4-yl)-1H-benzo[d]imidazol-2-yl)-1H-pyrazolo[3,4-c]pyridin-5-yl)pyridin-3-yl)butyramide] showed an IC50 above 10000 nM.

In turn, `CC(C)C(=O)Nc1cncc(-c2cc3c(-c4nc5c(N6CCN(C)CC6)cccc5[nH]4)n[nH]c3cn2)c1` [Compound 217, N-(5-(3-(4-(4-Methylpiperazin-1-yl)-1H-benzo[d]imidazol-2-yl)-1H-pyrazolo[3,4-c]pyridin-5-yl)pyridin-3-yl)isobutyramide] showed an IC50 of 355 nM. Still for that read-out and setting: next, `O=C(Nc1cncc(-c2cc3c(-c4nc5ccccc5[nH]4)n[nH]c3cn2)c1)C1CCCCC1` [Compound 256, N-(5-(3-(1H-Benzo[d]imidazol-2-yl)-1H-pyrazolo[3,4-c]pyridin-5-yl)pyridin-3-yl)cyclohexanecarboxamide]: 95.6 nM; `O=C(Nc1cncc(-c2cc3c(-c4nc5c(-c6ccsc6)cccc5[nH]4)n[nH]c3cn2)c1)C1CCC1` [Compound 280, N-(5-(3-(4-(Thiophen-3-yl)-1H-benzo[d]imidazol-2-yl)-1H-pyrazolo[3,4-c]pyridin-5-yl)pyridin-3-yl)cyclobutanecarboxamide]: 6.2 nM; `CCCCC(=O)Nc1cncc(-c2cc3c(-c4nc5c(-c6ccoc6)cccc5[nH]4)n[nH]c3cn2)c1` [Compound 304, N-(5-(3-(4-(Furan-3-yl)-1H-benzo[d]imidazol-2-yl)-1H-pyrazolo[3,4-c]pyridin-5-yl)pyridin-3-yl)pentanamide]: 145 nM. For the compound `O=C(Nc1cncc(-c2cc3c(-c4nc5c(-c6ccoc6)cccc5[nH]4)n[nH]c3cn2)c1)C1CCC1` [Compound 306, N-(5-(3-(4-(Furan-3-yl)-1H-benzo[d]imidazol-2-yl)-1H-pyrazolo[3,4-c]pyridin-5-yl)pyridin-3-yl)cyclobutanecarboxamide], inhibition was half-maximal at 16.8 nM (IC50). The compound `CN(C)c1cncc(-c2cc3c(-c4nc5c(-c6cccs6)cccc5[nH]4)n[nH]c3cn2)c1` [Compound 319, N,N-Dimethyl-5-(3-(4-(thiophen-2-yl)-1H-benzo[d]imidazol-2-yl)-1H-pyrazolo[3,4-c]pyridin-5-yl)pyridin-3-amine] registered an IC50 of 77.9 nM. Compound `CC(C)CC(=O)Nc1cncc(-c2cc3c(-c4nc5c(-c6ccc(F)s6)cccc5[nH]4)n[nH]c3cn2)c1` [Compound 340, N-(5-(3-(4-(5-Fluorothiophen-2-yl)-1H-benzo[d]imidazol-2-yl)-1H-pyrazolo[3,4-c]pyridin-5-yl)pyridin-3-yl)-3-methylbutanamide] displayed an IC50 of 17.3 nM. Consider `CC(=O)c1ccc(-c2cccc3[nH]c(-c4n[nH]c5cnc(-c6cncc(NC(=O)CC(C)(C)C)c6)cc45)nc23)s1` [Compound 406, N-(5-(3-(4-(5-Acetylthiophen-2-yl)-1H-benzo[d]imidazol-2-yl)-1H-pyrazolo[3,4-c]pyridin-5-yl)pyridin-3-yl)-3,3-dimethylbutanamide], for which the midpoint of inhibition, the IC50, lay at 247 nM. For the compound `CS(=O)(=O)NCc1cc(F)cc(-c2cccc3[nH]c(-c4n[nH]c5cnc(-c6cncc(NC(=O)C7CCC7)c6)cc45)nc23)c1` [Compound 436, N-(5-(3-(4-(3-Fluoro-5-(methylsulfonamidomethyl)phenyl)-1H-benzo[d]imidazol-2-yl)-1H-pyrazolo[3,4-c]pyridin-5-yl)pyridin-3-yl) cyclobutanecarboxamide], the IC50 is 25.8 nM. In turn, `Fc1cccc(-c2cccc3[nH]c(-c4n[nH]c5cnc(C6=CCNCC6)cc45)nc23)c1` [Compound 938, 3-(4-(3-Fluorophenyl)-1H-benzo[d]imidazol-2-yl)-5-(1,2,3,6-tetrahydropyridin-4-yl)-1H-pyrazolo[3,4-c]pyridine] came in with an IC50 of 145 nM.

For the compound `Cn1cc(-c2cc3c(-c4nc5c(-c6cccc(F)c6)cccc5[nH]4)n[nH]c3cn2)cn1` [Compound 940, 3-(4-(3-Fluorophenyl)-1H-benzo[d]imidazol-2-yl)-5-(1-methyl-1H-pyrazol-4-yl)-1H-pyrazolo[3,4-c]pyridine], the IC50 worked out at 46 nM.

Compound `Cc1ncc(-c2cc3c(-c4nc5c(-c6cccc(F)c6)cccc5[nH]4)n[nH]c3cn2)n1C` [Compound 941, 5-(1,2-Dimethyl-1H-imidazol-5-yl)-3-(4-(3-fluorophenyl)-1H-benzo[d]imidazol-2-yl)-1H-pyrazolo[3,4-c]pyridine] came in with a half-maximal inhibitory concentration (IC50) of 334 nM. Compound `NC1CN(c2cncc(-c3cc4c(-c5nc6c(-c7cccc(F)c7)cccc6[nH]5)n[nH]c4cn3)n2)C1` [Compound 942, 1-(6-(3-(4-(3-Fluorophenyl)-1H-benzo[d]imidazol-2-yl)-1H-pyrazolo[3,4-c]pyridin-5-yl)pyrazin-2-yl)azetidin-3-amine] displayed an IC50 of 79 nM. The same measure, in the same setting: next, `Fc1cccc(-c2cccc3[nH]c(-c4n[nH]c5cnc(-c6cncc(OC7CCCCC7)c6)cc45)nc23)c1` [Compound 943, 5-(5-(Cyclohexyloxy)pyridin-3-yl)-3-(4-(3-fluorophenyl)-1H-benzo[d]imidazol-2-yl)-1H-pyrazolo[3,4-c]pyridine]: 560 nM. For the compound `Fc1cccc(-c2cccc3[nH]c(-c4n[nH]c5cnc(-c6cncc(OC7CCNCC7)c6)cc45)nc23)c1` [Compound 944, 3-(4-(3-Fluorophenyl)-1H-benzo[d]imidazol-2-yl)-5-(5-(piperidin-4-yloxy)pyridin-3-yl)-1H-pyrazolo[3,4-c]pyridine], the half-maximal inhibitory concentration (IC50) was 1200 nM. `O=C(CC1CCNCC1)Nc1cncc(-c2cc3c(-c4nc5c(-c6cccc(F)c6)cccc5[nH]4)n[nH]c3cn2)c1` [Compound 945, N-(5-(3-(4-(3-Fluorophenyl)-1H-benzo[d]imidazol-2-yl)-1H-pyrazolo[3,4-c]pyridin-5-yl)pyridin-3-yl)-2-(piperidin-4-yl)acetamide] showed an IC50 above 10000 nM.

As to `Fc1cccc(-c2cccc3[nH]c(-c4n[nH]c5cnc(-c6cncc(OCCN7CCCC7)c6)cc45)nc23)c1` [Compound 946, 3-(4-(3-Fluorophenyl)-1H-benzo[d]imidazol-2-yl)-5-(5-(2-(pyrrolidin-1-yl)ethoxy)pyridin-3-yl)-1H-pyrazolo[3,4-c]pyridine], 580 nM corresponded to half-maximal inhibition (IC50). Consider `Fc1cccc(-c2cccc3[nH]c(-c4n[nH]c5cnc(-c6cncc(OCc7ccccc7)c6)cc45)nc23)c1` [Compound 950, 5-(5-(Benzyloxy)pyridin-3-yl)-3-(4-(3-fluorophenyl)-1H-benzo[d]imidazol-2-yl)-1H-pyrazolo[3,4-c]pyridine], for which the IC50 worked out at 165 nM.

Regarding `O=C(CC1CCCCC1)Nc1cncc(-c2cc3c(-c4nc5c(-c6cccc(F)c6)cccc5[nH]4)n[nH]c3cn2)c1` [Compound 951, 2-Cyclohexyl-N-(5-(3-(4-(3-fluorophenyl)-1H-benzo[d]imidazol-2-yl)-1H-pyrazolo[3,4-c]pyridin-5-yl)pyridin-3-yl)acetamide], the midpoint of inhibition, the IC50, lay at 115 nM.

The compound `CC(C)CC(=O)Nc1cncc(-c2cc3c(-c4nc5c(-c6cc(F)cc(OCCN(C)C)c6)cccc5[nH]4)n[nH]c3cn2)c1` [Compound 1262, N-(5-(3-(4-(3-(2-(Dimethylamino)ethoxy)-5-fluorophenyl)-1H-benzo[d]imidazol-2-yl)-1H-pyrazolo[3,4-c]pyridin-5-yl)pyridin-3-yl)-3-methylbutanamide] had an IC50 of 747 nM.

As for `CC(C)CC(=O)Nc1cncc(-c2cc3c(-c4nc5c(-c6cc(F)cc(OCCN7CCCC7)c6)cccc5[nH]4)n[nH]c3cn2)c1` [Compound 1306, N-(5-(3-(4-(3-Fluoro-5-(2-(pyrrolidin-1-yl)ethoxy)phenyl)-1H-benzo[d]imidazol-2-yl)-1H-pyrazolo[3,4-c]pyridin-5-yl)pyridin-3-yl)-3-methylbutanamide], the half-inhibitory concentration (IC50) was 1370 nM. Turning to `CN(C)CC(=O)Nc1cncc(-c2cc3c(-c4nc5c(-c6cccc(F)c6)cccc5[nH]4)n[nH]c3cn2)c1` [Compound 1437, 2-(Dimethylamino)-N-(5-(3-(4-(3-fluorophenyl)-1H-benzo[d]imidazol-2-yl)-1H-pyrazolo[3,4-c]pyridin-5-yl)pyridin-3-yl)acetamide], the IC50 came out at 155 nM.

A further assay concerns primary human fibroblasts derived from IPF patients (LL29 cells). Put plainly: Inhibition of fibrosis (αSMA staining) in TGF-β1-treated primary human fibroblasts from IPF patients. In kind it is cell-based. The note with it: Fibroblast, 96 h, TGF-β1 20 ng/mL, 4 days. The method, then:
The above synthesized compounds were screened using primary human fibroblasts (derived from IPF patients) treated with TGF-β1 to determine their ability to inhibit the fibrotic process.
Compound Screening: Each compound was dissolved in DMSO as a 10 mM stock and used to prepare compound source plates. […] LL29 cells were plated at 1,500 cells/well in 80 μl/well F12 medium supplemented with 1% Fetal Bovine Serum. One hour after addition of the cells, TGF-β1 (Peprotech; 20 ng/mL) was added to the plates to induce fibrosis (ref. 1 and 2 above). Wells treated with TGF-β1 and containing DMSO were used as controls. Cells were incubated at 37° C. and 5% CO2 for 4 days. Following incubation for 4 days, SYTOX green nucleic acid stain (Life Technologies [Thermo Fisher Scientific]) was added to the wells at a final concentration of 1 uM and incubated at room temperature for 30 min. Cells were then fixed using 4% formaldehyde (Electron Microscopy Sciences), washed 3 times with PBS followed by blocking and permeabilization using 3% Bovine Serum Albumin (BSA; Sigma) and 0.3% Triton X-100 (Sigma) in PBS. Cells were then stained with antibody specific to α-smooth muscle actin (aSMA; Abcam) (ref. 1 and 2 above) in 3% Bovine Serum Albumin (BSA; Sigma) and 0.3% Triton X-100 (Sigma) in PBS, and incubated overnight at 4° C. […] Dead or apoptotic cells were excluded from analysis based on positive SYTOX green staining. % of total cells positive for αSMA were counted in each well and normalized to the average of 11 wells treated with TGF-β1 on the same plate using Dotmatics' Studies Software. […] The EC50 values are reported.
Take `CCC(=O)Nc1cncc(-c2cc3c(-c4nc5c(-c6cccc(F)c6)cccc5[nH]4)n[nH]c3cn2)c1` [Compound 1, N-(5-(3-(4-(3-Fluorophenyl)-1H-benzo[d]imidazol-2-yl)-1H-pyrazolo[3,4-c]pyridin-5-yl)pyridin-3-yl)propionamide]: the EC50 is 9 nM. `CN(C)c1cncc(-c2cc3c(-c4nc5c(-c6cccc(F)c6)cccc5[nH]4)n[nH]c3cn2)c1` [Compound 7, 5-(3-(4-(3-Fluorophenyl)-1H-benzo[d]imidazol-2-yl)-1H-pyrazolo[3,4-c]pyridin-5-yl)-N,N-dimethylpyridin-3-amine]: the EC50 was found to be 17 nM. With `CN1CCN(c2cccc3[nH]c(-c4n[nH]c5cnc(-c6cncc(CN7CCCCC7)c6)cc45)nc23)CC1` [Compound 223, 3-(4-(4-Methylpiperazin-1-yl)-1H-benzo[d]imidazol-2-yl)-5-(5-(piperidin-1-ylmethyl)pyridin-3-yl)-1H-pyrazolo[3,4-c]pyridine], a half-maximal response (EC50) required 2610 nM.
